Measured values taken from patent publication US8563742B2, “Substituted aminothiazole derivatives, pharmaceutical compositions, and methods of use” (High Point Pharmaceuticals, LLC, priority 2008, dated 2013).

Target: T1, human MC-4R (Homo sapiens, UniProt P32245)
T1 construct: expressed in transfected cells
Assay: Biological Assay: inhibition of AgRP functional interaction with MC-4R in presence of αMSH (cAMP production)
Assay type: cell-based
Settings: Average EC50 (nM) in Biological Assay, HEK293 cells expressing human MC-4R, AgRP83-132 and αMSH present
Protocol: The following method is illustrative of techniques that may be employed to measure the ability of the compounds of Formula (I) to functionally modulate the binding of AgRP to melanocortin receptors. In particular, the assay below measures the ability of compounds of Formula (I) or pharmaceutically acceptable salts thereof to functionally modulate the binding of AgRP to MC-4R in the presence of a MC-4R agonist, such as alpha-MSH.
HEK293 cells stably expressing human MC-4R receptors were grown in high glucose Dulbecco's Modified Eagle Medium (DMEM) with 4500 mg glucose/L, L-glutamine, NaHCO3, pyrdoxin HCl, 10 mM HEPES (pH 7.4), 0.1 mM NEAA (non-essential amino acid medium) (GIBCO Cat#11140-050), 10% fetal bovine serum and 700 μg/mL G418. Cells were grown in T-225 flasks at 37° C. with CO2 and humidity control.
On the day of assay, cells were washed twice with phosphate buffered saline without calcium and magnesium (PBS) and incubated with 10 mL PBS until the cells were detached from the flask. The detached cells were centrifuged at 240 g for 5 min. The cell pellet was re-suspended in assay buffer (Earle's balanced salt solution (Sigma E3024) supplemented with 10 mM HEPES, pH 7.4, 0.5 mM IBMX and protease inhibitor cocktail (Roche, 1 complete tablet/75 mL buffer)).
The inhibitory or enhancement effect of compounds on AgRP activity was measured in a multi-component assay containing testing compounds, AgRP83-132 (human, Phoenix Pharma, cat no. 003-53), cells expressing MC-4R, and αMSH (Bachem, cat no. H-1075). Test compounds, AgRP and αMSH were diluted with assay buffer. Test compounds and AgRP were mixed to 4 times of the final concentration and incubated at room temperature for 30 min. Five μL of testing compound/AgRP solution followed with 10 μL of cells (20,000 cells/well) were added to each well of a 384-well reaction plate before 5 μL of αMSH was added. Cells were stimulated with αMSH for an additional 30 min at 37° C.
Stimulation of cells was stopped by adding a lysis buffer and cells were lysed. The intracellular concentration of cAMP may be measured by various techniques known to one of skill in the art including, but not limited to, fluorescence polarization (FP) and time-resolved fluorescence (TRF).
The inhibition was shown by an increase in MC-4R mediated cAMP production.

T1 sequence (P32245 whole entry): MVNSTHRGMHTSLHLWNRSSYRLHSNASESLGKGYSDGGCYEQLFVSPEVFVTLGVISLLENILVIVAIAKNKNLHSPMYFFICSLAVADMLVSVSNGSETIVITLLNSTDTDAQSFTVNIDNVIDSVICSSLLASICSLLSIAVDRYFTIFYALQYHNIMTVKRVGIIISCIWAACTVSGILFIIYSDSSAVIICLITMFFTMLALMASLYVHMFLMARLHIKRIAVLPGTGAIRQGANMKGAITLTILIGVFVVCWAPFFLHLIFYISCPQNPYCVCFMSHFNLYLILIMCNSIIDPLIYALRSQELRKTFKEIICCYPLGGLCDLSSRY

SMILES	EC50
CCc1ccc(CN(CCC(=O)O)c2nc(C3CCC(CC)CC3)cs2)s1 (stereo not shown) [Example 20, 3-[[4-(4-Ethyl-cyclohexyl)-thiazol-2-yl]-(5-ethyl-thiophen-2-ylmethyl)-amino]-propionic acid]	389 nM
CC(C)C1CCC(c2csc(N(CCC(=O)O)Cc3ccc(S(C)(=O)=O)s3)n2)CC1 (stereo not shown) [Example 37, 3-[[4-(4-Isopropyl-cyclohexyl)-thiazol-2-yl]-(5-methanesulfonyl-thiophen-2-ylmethyl)-amino]-propionic acid]	524 nM

Same assay, conditions: HEK293 cells expressing human MC-4R, AgRP83-132 and αMSH present; read-out: Average EC50 (nM) in Biological Assay

SMILES	EC50
CCc1ccc(CN(CCC(=O)O)c2nc([C@H]3CC[C@H](C(C)C)CC3)cs2)s1 [Example 10, Sodium; 3-[(5-ethyl-thiophen-2-ylmethyl)-[4-(4-trans-isopropyl-cyclohexyl)-thiazol-2-yl]-amino]-propionate]	260 nM
CCc1ccc(CN(CCC(=O)O)c2nc(C3Cc4ccccc4C3)cs2)s1 [Example 11, 3-[(5-Ethyl-thiophen-2-ylmethyl)-(4-indan-2-yl-thiazol-2-yl)-amino]-propionic acid]	252 nM
Cc1ccc(CN(CCC(=O)O)c2nc(C3Cc4ccccc4C3)cs2)s1 [Example 12, 3-[(4-Indan-2-yl-thiazol-2-yl)-(5-methyl-thiophen-2-ylmethyl)-amino]-propionic acid]	384 nM
CCc1ccc(CN(CCC(=O)O)c2nc(C3CCc4ccccc4C3)cs2)s1 (stereo not shown) [Example 13, 3-{(5-Ethyl-thiophen-2-ylmethyl)-[4-(1,2,3,4-tetrahydro-naphthalen-2-yl)-thiazol-2-yl]-amino}-propionic acid]	528 nM
Cc1ccc(CN(CCC(=O)O)c2nc(C3CCc4ccccc4C3)cs2)s1 (stereo not shown) [Example 14, 3-{(5-Methyl-thiophen-2-ylmethyl)-[4-(1,2,3,4-tetrahydro-naphthalen-2-yl)-thiazol-2-yl]-amino]-propionic acid]	602 nM
CCc1ccc(CN(CCC(=O)O)c2nc(CC3CCC(C)CC3)cs2)s1 (stereo not shown) [Example 15, 3-{(5-Ethyl-thiophen-2-ylmethyl)-[4-(4-methyl-cyclohexylmethyl)-thiazol-2-yl]-amino}-propionic acid]	221 nM
Cc1ccc(CN(CCC(=O)O)c2nc(CC3CCC(C)CC3)cs2)s1 (stereo not shown) [Example 16, 3-[[4-(4-Methyl-cyclohexylmethyl)-thiazol-2-yl]-(5-methyl-thiophen-2-ylmethyl)-amino]-propionic acid]	205 nM
CCc1ccc(CN(CCC(=O)O)c2nc(C3CCC(C(F)(F)F)CC3)cs2)s1 (stereo not shown) [Example 17, 3-{(5-Ethyl-thiophen-2-ylmethyl)-[4-(4-trifluoromethyl-cyclohexyl)-thiazol-2-yl]-amino}-propionic acid]	259 nM
Cc1ccc(CN(CCC(=O)O)c2nc(C3CCC(C(F)(F)F)CC3)cs2)s1 (stereo not shown) [Example 18, 3-{(5-Methyl-thiophen-2-ylmethyl)-[4-(4-trifluoromethyl-cyclohexyl)-thiazol-2-yl]-amino}-propionic acid]	416 nM
CCCC1CCC(c2csc(N(CCC(=O)O)Cc3ccc(CC)s3)n2)CC1 (stereo not shown) [Example 22, 3-{(5-Ethyl-thiophen-2-ylmethyl)-[4-(4-propyl-cyclohexyl)-thiazol-2-yl]-amino]-propionic acid]	394 nM
CSc1ccc(CN(CCC(=O)O)c2nc(C3CCC(C(C)(C)C)CC3)cs2)s1 (stereo not shown) [Example 29, Sodium; 3-[[4-(4-tert-butyl-cyclohexyl)-thiazol-2-yl]-(5-methylsulfanyl-thiophen-2-ylmethyl)-amino]-propionate]	427 nM
COC1CCC(c2csc(N(CCC(=O)O)Cc3ccc(C)s3)n2)CC1 (stereo not shown) [Example 30, 3-[[4-(4-Methoxy-cyclohexyl)-thiazol-2-yl]-(5-methyl-thiophen-2-ylmethyl)-amino]-propionic acid]	3890 nM
CCc1ccc(CN(CCC(=O)O)c2nc(C3CCC(OC)CC3)cs2)s1 (stereo not shown) [Example 32, 3-{(5-Ethyl-thiophen-2-ylmethyl)-[4-(4-methoxy-cyclohexyl)-thiazol-2-yl]-amino}-propionic acid]	2280 nM
CCc1ccc(CN(CCC(=O)O)c2nc(C3CCC(OC)CC3)cs2)s1 (stereo not shown) [Example 33, 3-{(5-Ethyl-thiophen-2-ylmethyl)-[4-(4-methoxy-cyclohexyl)-thiazol-2-yl]-amino}-propionic acid]	1230 nM
Cc1ccc(CN(CCC(=O)O)c2nc(C3(c4ccc(F)cc4)CCCC3)cs2)s1 [Example 34, Sodium; 3-[{4-[1-(4-fluoro-phenyl)-cyclopentyl]-thiazol-2-yl}-(5-methyl-thiophen-2-ylmethyl)-amino]-propionate]	269 nM
CC(C)(C)C1CCC(c2csc(N(CCC(=O)O)Cc3ccc(S(C)(=O)=O)s3)n2)CC1 (stereo not shown) [Example 36, 3-[[4-(4-tert-Butyl-cyclohexyl)-thiazol-2-yl]-(5-methanesulfonyl-thiophen-2-ylmethyl)-amino]-propionic acid]	267 nM
Cc1ccc(CN(CCC(=O)O)c2nc(C3(C)CCC(C)(C)CC3)cs2)s1 [Example 52, 3-[[4-(1,4,4-trimethyl-cyclohexyl)-thiazol-2-yl]-(5-methyl-thiophen-2-ylmethyl)-amino]-propionic acid]	267 nM

Further lines, results first:

EC50	SMILES
58 nM	CCC1(c2csc(N(CCC(=O)O)Cc3ccc(C)s3)n2)CCC(C(C)C)CC1 (mixture of isomers) [Example 41, Sodium; 3-[[4-(1-ethyl-4-isopropyl-cyclohexyl)-thiazol-2-yl]-(5-methyl-thiophen-2-ylmethyl)-amino]-propionate]
126 nM	CCc1ccc(CN(CCC(=O)O)c2nc(C3CC4CCC3C4)cs2)s1 (stereo not shown) [Example 1, Sodium; 3-[(4-bicyclo[2.2.1]hept-2-yl-thiazol-2-yl)-(5-ethyl-thiophen-2-ylmethyl)-amino]-propionate]
79 nM	CCc1ccc(CN(CCC(=O)O)c2nc(C3CCC(F)(F)CC3)cs2)s1 [Example 24, Sodium; 3-[[4-(4,4-difluoro-cyclohexyl)-thiazol-2-yl]-(5-ethyl-thiophen-2-ylmethyl)-amino]-propionate]
114 nM	Cc1ccc(CN(CCC(=O)O)c2nc(C3CCC(C(C)(C)C)CC3)cs2)s1 (stereo not shown) [Example 27, 3-[[4-(4-tert-Butyl-cyclohexyl)-thiazol-2-yl]-(5-methyl-thiophen-2-ylmethyl)-amino]-propionic acid]
171 nM	CCc1ccc(CN(CCC(=O)O)c2nc(C3CCC(C(C)(C)C)CC3)cs2)s1 (stereo not shown) [Example 28, 3-[[4-(4-tert-Butyl-cyclohexyl)-thiazol-2-yl]-(5-ethyl-thiophen-2-ylmethyl)-amino]-propionic acid]
132 nM	Cc1ccc(C2(c3csc(N(CCC(=O)O)Cc4ccc(C)s4)n3)CCCC2)cc1 [Example 35, Sodium; 3-{(5-methyl-thiophen-2-ylmethyl)-[4-(1-p-tolyl-cyclopentyl)-thiazol-2-yl]-amino}-propionate]
173 nM	CCc1ccc(CN(CCC(=O)O)c2nc(C3(CC(C)C)CCCC3)cs2)s1 [Example 43, 3-{(5-Ethyl-thiophen-2-ylmethyl)-[4-(1-isobutyl-cyclopentyl)-thiazol-2-yl]-amino}-propionic acid]
191 nM	Cc1cc(CN(CCC(=O)O)c2nc(C3(CC(C)C)CCCC3)cs2)c(C)s1 [Example 44, 3-{(2,5-Dimethyl-thiophen-3-ylmethyl)-[4-(1-isobutyl-cyclopentyl)-thiazol-2-yl]-amino}-propionic acid]
159 nM	CCC1(c2csc(N(CCC(=O)O)Cc3ccc(C)s3)n2)CCC(C)CC1 (stereo not shown) [Example 45, Sodium; 3-[[4-(1-ethyl-4-methyl-cyclohexyl)-thiazol-2-yl]-(5-methyl-thiophen-2-ylmethyl)-amino]-propionate]
102 nM	CCc1ccc(CN(CCC(=O)O)c2nc(C3(C)CCC(C(C)C)CC3)cs2)s1 (stereo not shown) [Example 49, Sodium; 3-{(5-ethyl-thiophen-2-ylmethyl)-[4-(4-isopropyl-1-methyl-cyclohexyl)-thiazol-2-yl]-amino}-propionate]
154 nM	Cc1ccc(CN(CCC(=O)O)c2nc(C3(C)CCC(C(C)(C)C)CC3)cs2)s1 (stereo not shown) [Example 50, 3-[[4-(4-tert-Butyl-1-methyl-cyclohexyl)-thiazol-2-yl]-(5-methyl-thiophen-2-ylmethyl)-amino]-propionic acid]
143 nM	Cc1ccc(CN(CCC(=O)O)c2nc(C3(C)CCC(c4ccccc4)CC3)cs2)s1 (stereo not shown) [Example 51, 3-[[4-(1-Methyl-4-phenyl-cyclohexyl)-thiazol-2-yl]-(5-methyl-thiophen-2-ylmethyl)-amino]-propionic acid]
